Test results: US10118918B2, “PRMT5 inhibitors and uses thereof” (Epizyme, Inc., priority 2012, dated 2018)

How the values were obtained:
[1] = tested on: symmetric di-methyl arginine in Z-138 cells; test: Z-138 Methylation Assay (In Cell Western for symmetric di-methyl arginine and DNA content); assay type: cell-based; settings: Homo sapiens, 96 hours incubation, read-out: ICW EC50
Text: [formula] Where top and bottom are the normally allowed to float, but may be fixed at 100 or 0 respectively in a 3-parameter fit. The Hill Coefficient normally allowed to float but may also be fixed at 1 in a 3-parameter fit. Y is the % inhibition and X is the compound concentration. Z-138 Methylation Assay
Z-138 suspension cells were purchased from ATCC (American Type Culture Collection, Manassas, Va.). RPMI/Glutamax medium, penicillin-streptomycin, heat inactivated fetal bovine serum, and D-PBS were purchased from Life Technologies, Grand Island, N.Y., USA. Odyssey blocking buffer, 800CW goat anti-rabbit IgG (H+L) antibody, and Licor Odyssey infrared scanner were purchased from Licor Biosciences, Lincoln, Nebr., USA. Symmetric di-methyl arginine antibody was purchased from EMD Millipore, Billerica, Mass., USA. 16% Paraformaldehyde was purchased from Electron Microscopy Sciences, Hatfield, Pa., USA.
Z-138 suspension cells were maintained in growth medium (RPMI 1640 supplemented with 10% v/v heat inactivated fetal bovine serum and 100 units/mL penicillin-streptomycin) and cultured at 37° C. under 5% CO2.
Cell Treatment, in Cell Western (ICW) for Detection of Symmetric Di-Methyl Arginine and DNA Content.
Z-138 cells were seeded in assay medium at a concentration of 50,000 cells per mL to a 384-well cell culture plate with 50 μL per well. Compound (100 nL) from 384 well source plates was added directly to 384 well cell plate. Plates were incubated at 37° C., 5% CO2 for 96 hours. After four days of incubation, 40 μL of cells from incubated plates were added to poly-D-lysine coated 384 well culture plates (BD Biosciences 356697). Plates were incubated at room temperature for 30 minutes then incubated at 37° C., 5% CO2 for 5 hours. After the incubation, 40 μL per well of 8% paraformaldehyde in PBS (16% paraformaldahyde was diluted to 8% in PBS) was added to each plate and incubated for 30 minutes. Plates were transferred to a Biotek 405 plate washer and washed 5 times with 100 μL per well of wash buffer (IX PBS with 0.1% Triton X-100 (v/v)). Next 30 μL per well of Odyssey blocking buffer were added to each plate and incubated 1 hour at room temperature. Blocking buffer was removed and 20 μL per well of primary antibody was added (symmetric di-methyl arginine diluted 1:100 in Odyssey buffer with 0.1% Tween 20 (v/v)) and plates were incubated overnight (16 hours) at 4° C. Plates were washed 5 times with 100 μL per well of wash buffer. Next 20 μL per well of secondary antibody was added (1:200 800CW goat anti-rabbit IgG (H+L) antibody, 1:1000 DRAQ5 (Biostatus limited) in Odyssey buffer with 0.1% Tween 20 (v/v)) and incubated for 1 hour at room temperature. The plates were washed 5 times with 100 μL per well wash buffer then 1 time with 100 μL per well of water. Plates were allowed to dry at room temperature then imaged on the Licor Odyssey machine which measures integrated intensity at 700 nm and 800 nm wavelengths. Both 700 and 800 channels were scanned.
First, the ratio for each well was determined by:
Each plate included fourteen control wells of DMSO only treatment (minimum inhibition) as well as fourteen control wells for maximum inhibition treated with 3 μM of a reference compound (Background wells). The average of the ratio values for each control type was calculated and used to determine the percent inhibition for each test well in the plate. Reference compound was serially diluted three-fold in DMSO for a total of nine test concentrations, beginning at 3 μM. Percent inhibition was determined and IC50 curves were generated using triplicate wells per concentration of compound. […]

Z-138 cells = test: Z-138 Proliferation Assay (Cell Titer Glo); assay type: cell-based; settings: Homo sapiens, 120 h, 5 days incubation
Text: [formula] Z-138 Proliferation Assay
Z-138 suspension cells were purchased from ATCC (American Type Culture Collection, Manassas, Va.). RPMI/Glutamax medium, penicillin-streptomycin, heat inactivated fetal bovine serum were purchased from Life Technologies, Grand Island, N.Y., USA. V-bottom polypropylene 384-well plates were purchased from Greiner Bio-One, Monroe, N.C., USA. Cell culture 384-well white opaque plates were purchased from Perkin Elmer, Waltham, Mass., USA. Cell-Titer Glo® was purchased from Promega Corporation, Madison, Wis., USA. SpectraMax M5 plate reader was purchased from Molecular Devices LLC, Sunnyvale, Calif., USA.
Z-138 suspension cells were maintained in growth medium (RPMI 1640 supplemented with 10% v/v heat inactivated fetal bovine serum and cultured at 37° C. under 5% CO2. Under assay conditions, cells were incubated in assay medium (RPMI 1640 supplemented with 10% v/v heat inactivated fetal bovine serum and 100 units/mL penicillin-streptomycin) at 37° C. under 5% CO2.
For the assessment of the effect of compounds on the proliferation of the Z-138 cell line, exponentially growing cells were plated in 384-well white opaque plates at a density of 10,000 cells/ml in a final volume of 50 μl of assay medium. A compound source plate was prepared by performing triplicate nine-point 3-fold serial dilutions in DMSO, beginning at 10 mM (final top concentration of compound in the assay was 20 μM and the DMSO was 0.2%). A 100 nL aliquot from the compound stock plate was added to its respective well in the cell plate. […] After addition of compounds, assay plates were incubated for 5 days at 37° C., 5% CO2, relative humidity >90%.
Cell viability was measured by quantitation of ATP present in the cell cultures, adding 35 μl of Cell Titer Glo® reagent to the cell plates. Luminescence was read in the SpectraMax M5 microplate reader. The concentration of compound inhibiting cell viability by 50% was determined using a 4-parametric fit of the normalized dose response curves.

Row | Structure (SMILES) | EC50 [1] [µM] | EC50 (Z-138 cells) [µM]
1 | Cn1ncc2ccc(OCC(=O)NC[C@H](O)CN3Cc4ccccc4C3)cc21 [compound 27] | 1 to 10 | > 20
2 | O=C(NC[C@H](O)CN1Cc2ccccc2C1)c1ccnc(NC2CCOCC2)c1 [compound 30] | 0.101 to 1 | 1 to 10
3 | O=C(NC[C@H](O)CN1Cc2ccccc2C1)c1cncc(NC2CCNC2)c1 (some centres unmarked) [compound 32] | 1 to 10 | > 20
4 | CS(=O)(=O)N1CCC(Nc2cncc(C(=O)NC[C@H](O)CN3Cc4ccccc4C3)c2)C1 (some centres unmarked) [compound 33] | 0.101 to 1 | > 20
